Measured values reported in PMC5733478, “A Non-imaging High Throughput Approach to Chemical Library Screening at the Unmodified Adenosine-A3 Receptor in Living Cells” (Frontiers in Pharmacology, 2017).
Where a name gives a salt, the structure may show the parent alone.

The compounds below were run against T1, human A3AR (Homo sapiens, UniProt P0DMS8) (assay: LOPAC library primary screen: single concentration (10 μM) inhibition of 25 nM CA200645 binding, PHERAstar FS). Details: not given.
T1 construct: expressed in transfected cells
T1 sequence (P0DMS8 1-318): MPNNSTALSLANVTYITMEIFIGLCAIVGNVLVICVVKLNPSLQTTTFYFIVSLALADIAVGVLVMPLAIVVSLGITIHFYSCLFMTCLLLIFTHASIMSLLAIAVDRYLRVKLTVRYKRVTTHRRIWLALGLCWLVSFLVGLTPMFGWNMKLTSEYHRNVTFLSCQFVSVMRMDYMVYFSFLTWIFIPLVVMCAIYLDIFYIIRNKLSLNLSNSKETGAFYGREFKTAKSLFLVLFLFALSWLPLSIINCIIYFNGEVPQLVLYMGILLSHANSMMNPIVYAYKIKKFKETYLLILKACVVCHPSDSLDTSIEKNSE

In order of rising “% 25 nM CA200645 binding” value:
1. O=C1NC(=O)/C(=C/c2ccc(-c3ccc(F)cc3O)o2)S1 [AS-252424]  45.8 ± 20.9%
2. COc1ccc(-c2cc(=O)c3c(O)c(OC)c(OC)cc3o2)cc1O [Eupatorin]  47.2 ± 12.7%
3. O=C(Nc1nc2ccccc2n1CCN1CCOCC1)c1cccc([N+](=O)[O-])c1 [IRAK-1/4 Inhibitor I]  61.3 ± 9.4%
4. Brc1ccc([C@H]2CN3CCSC3=N2)cc1.O=C(O)C(=O)O [S(-)-p-Bromotetramisole oxalate]  68.6 ± 44.8%
5. Clc1ccc(N2CCN(Cc3cc4ccccn4n3)CC2)cc1 [FAUC 213]  76.8 ± 3.4%
6. CCOC(=O)C1=C(C)NC(C)=C(C(=O)OC)C1c1cccc(Cl)c1Cl (stereo not shown) [Felodipine]  79.1 ± 13.7%
7. COC(=O)C1=C(C)NC(C)=C(C(=O)OC(C)(C)CN(C)CCC(c2ccccc2)c2ccccc2)C1c1cccc([N+](=O)[O-])c1.COC(=O)C1=C(C)NC(C)=C(C(=O)OC(C)(C)CN(C)CCC(c2ccccc2)c2ccccc2)C1c1cccc([N+](=O)[O-])c1.Cl.Cl.O (stereo not shown) [Lercanidipine hydrochloride hemihydrate]  82.9 ± 16.7%
8. CC/C(=C(\c1ccccc1)c1ccc(OCCN(C)C)cc1)c1ccccc1 [Tamoxifen]  83.1 ± 23.3%
9. O=C1Cc2cc(CCN3CCN(c4nsc5ccccc45)CC3)c(Cl)cc2N1 [Ziprasidone hydrochloride monohydrate]  84.7 ± 3.4%
10. Cl.NC[C@@H]1O[C@H](C23CC4CC(CC(C4)C2)C3)Cc2c1ccc(O)c2O [A-77636 hydrochloride]  87.3 ± 8.5%
11. C[C@H]1CCC/C=C/[C@@H]2C[C@H](O)C[C@H]2[C@H](O)/C=C/C(=O)O1  87.5 ± 5.2%
12. O=C(/C=C/c1ccc(O)cc1)c1ccc(O)cc1O [Isoliquiritigenin]  88.0 ± 9.1%
13. Cn1c(=O)c2[nH]cnc2n(C)c1=O.Cn1c(=O)c2[nH]cnc2n(C)c1=O.NCCN [Aminophylline ethylenediamine]  89.2 ± 8.4%
14. COc1cc2ncnc(Nc3cccc(Cl)c3)c2cc1OC [Tyrphostin AG 1478]  90.3 ± 8.9%
15. N=C(N)c1ccccc1 [Benzamidine hydrochloride]  90.8 ± 8.3%
16. Nc1ncn([C@@H]2O[C@H](CO)[C@@H](O)[C@H]2O)c(=O)n1 [5-azacytidine]  92.0 ± 10.7%
17. CC(=O)OCC(=O)[C@@]1(O)CC[C@H]2[C@@H]3CCC4=CC(=O)CC[C@]4(C)[C@H]3C(=O)C[C@@]21C [Cortisone 21-acetate]  92.1 ± 5.7%
18. CC[C@@H](CO)NC(=O)[C@@H]1C=C2c3cccc4c3c(cn4C)C[C@H]2N(C)C1 [Methysergide maleate]  92.3 ± 21.2%
19. CC(C)NCC(O)c1ccc(NS(C)(=O)=O)cc1.Cl (racemic) [(±)-Sotalol hydrochloride]  93.5 ± 12.0%
20. Cc1ccc(Cl)c(Nc2ccccc2C(=O)O)c1Cl [Meclofenamic acid sodium]  93.6 ± 9.6%
21. Cl.O=C(CCCCCN1CCN(c2ccccc2-c2ccccc2)CC1)NC1CCCc2ccccc21 (stereo not shown) [LP 12 hydrochloride hydrate]  93.7 ± 9.5%
22. COc1cc2c(CCNC(C)=O)c[nH]c2cc1O [6-Hydroxymelatonin]  94.1 ± 9.8%
23. O=C(O)CCc1ccc(NCc2cccc(Oc3ccccc3)c2)cc1 [GW9508]  94.4 ± 0.8%
24. CCOC(=O)C(C)Oc1cccc2c(=O)n(CC(=O)Nc3ccc4c(c3)OCCO4)ccc12 (stereo not shown) [SID7969543]  94.8 ± 24.3%
25. CC(C(O)c1ccc(O)cc1)N1CCC(Cc2ccccc2)CC1.CC(C(O)c1ccc(O)cc1)N1CCC(Cc2ccccc2)CC1.O=C(O)C(O)C(O)C(=O)O (stereo not shown) [Ifenprodil tartrate]  95.4 ± 10.6%
26. O=C1C(SCCO)=C(SCCO)C(=O)c2ccccc21 [NSC 95397]  96.3 ± 15.0%
27. Cc1cnc(C(=O)NCCc2ccc(S(=O)(=O)NC(=O)NC3CCCCC3)cc2)cn1 [Glipizide]  96.3 ± 1.2%
28. NCCCS(=O)(=O)O.[Na] [3-Amino-1-propanesulfonic acid sodium]  96.5 ± 4.6%
29. OCCN1CCN(CC/C=C2/c3ccccc3Sc3ccc(C(F)(F)F)cc32)CC1 [cis-(Z)-Flupenthixol dihydrochloride]  96.5 ± 4.1%
30. NC1CCN(O)C1=O (racemic) [(±)-HA-966]  96.6 ± 6.4%
31. CCOC(=O)C1=C[C@]2(CC)CCCN3CCc4c(n1c1ccccc41)[C@@H]32 [Vinpocetine]  97.3 ± 11.5%
32. N[C@@H]1CONC1=O (racemic) [DL-Cycloserine]  97.4 ± 8.2%
33. O=C1CCC(c2ccc(-n3ccnc3)cc2)=NN1 [Imazodan]  97.4 ± 12.7%
34. NC(=O)CN1CC(O)CC1=O (stereo not shown) [Oxiracetam]  97.9 ± 12.4%
35. Br.CCCN(CCC)C1CCc2ccc(O)cc2C1 (racemic) [(±)-7-Hydroxy-DPAT hydrobromide]  98.0 ± 1.6%
36. Cl.Nc1ccn([C@@H]2O[C@H](CO)[C@@H](O)[C@@H]2O)c(=O)n1  98.1 ± 3.7%
37. CC(C)N(CCC(C(N)=O)(c1ccccc1)c1ccccn1)C(C)C (stereo not shown) [Disopyramide phosphate]  98.5 ± 7.6%
38. NC(=O)OCC(COC(N)=O)c1ccccc1 [Felbamate]  98.7 ± 4.1%
39. Cl.NNC(N)=O [Semicarbazide hydrochloride]  98.7 ± 22.6%
40. NCCc1c[nH]c2ccccc12 [Tryptamine hydrochloride]  98.8 ± 5.7%
41. Cl.N=C(N)c1ccc(CS(=O)(=O)F)cc1  98.9 ± 8.1%
42. CN(C)c1nc(N(C)C)nc(N(C)C)n1 [Altretamine]  99.1 ± 9.2%
43. NC(CCP(=O)(O)O)C(=O)O (racemic) [(±)-2-Amino-4-phosphonobutyric acid]  99.9 ± 8.9%
44. N[C@H](CO)C(=O)O [D-Serine]  100.2 ± 11.0%
45. CCCCCCCCCCCCCCCCCCN(CCCCCCCCCCCCCCCCCC)CCCN(CCO)CCO [Avridine]  100.2 ± 21.9%
46. O=C(OCCN1CCOCC1)C1(c2ccccc2)CCCCC1 [PRE-084]  100.3 ± 14.3%
47. Cc1nc(N=Nc2cc(S(=O)(=O)[O-])c3cc([N+](=O)[O-])cc(S(=O)(=O)[O-])c3c2)c(COP(=O)([O-])[O-])c(C=O)c1O.[Na+].[Na+].[Na+].[Na+] [PPNDS tetrasodium]  100.4 ± 12.5%
48. Oc1ccc(O)cc1 [Hydroquinone]  100.7 ± 6.6%
49. NC(=O)c1ncn([C@@H]2O[C@H](CO)[C@@H](O)[C@H]2O)c1O [Mizoribine]  101.6 ± 4.8%
50. Cl.O=C(c1ccc(OCCCc2cnc[nH]2)cc1)C1CC1 [Ciproxifan hydrochloride]  102.4 ± 6.2%
51. COc1cc(C(O)CO)ccc1OS(=O)(=O)[O-].[K+] (stereo not shown) [MHPG sulfate potassium]  102.8 ± 6.8%
52. NC12CC3CC(CC(C3)C1)C2 [Amantadine hydrochloride]  104.6 ± 3.5%
53. C=CCN1CC[C@]23CCCC[C@H]2[C@H]1Cc1ccc(O)cc13 [Levallorphan tartrate]  105.9 ± 7.3%
54. N[C@@H](Cn1ccc(=O)c(O)c1)C(=O)O [L-Mimosine from Koa hoale seeds]  106.5 ± 13.7%
55. CNc1ncnc2c1ncn2[C@H]1C[C@H](OP(=O)(O)O)[C@@H](COP(=O)(O)O)O1 [MRS 2179]  108.4 ± 2.3%
56. O=C1OC(=O)[C@H]2[C@@H]1[C@@H]1CC[C@H]2O1 [Norcantharidin]  108.5 ± 19.2%
57. C=C(C)[C@H]1CC=C(C(=O)O)CC1 [(-)-Perillic acid]  115.8 ± 16.6%
58. S-Nitroso-N-acetylpenicillamine  127.5 ± 10.1%

Same assay, conditions: 10 μM compound, 25 nM CA200645, A3AR CHO cells

`Cn1c(=O)c2nc(C3CCCC3)[nH]c2n(C)c1=O` [CPT, reference compound] was tested, and the “hit in LOPAC primary screen (inhibited the binding of CA200645 by >40%)” value was “not identified as hits”.

Same assay, conditions: % of control wells (1% DMSO and 25 nM CA200645); compounds at 10 µM; […]; mean ± SD, three experiments in duplicate

In the case of `O=C1Nc2ccccc2/C1=C1/Nc2ccccc2/C1=N\O` [Indirubin-3'-oxime], the “% 25 nM CA200645 binding” value is reported as 50.6 ± 24.7%.

Same assay, conditions: % of control wells (1% DMSO and 25 nM CA200645); compounds at 10 µM; whole live cells expressing A3AR; mean ± SD, three experiments in duplicate

In order of rising “% 25 nM CA200645 binding” value:
1. CS(=O)(=O)c1ccc(-n2nc(C(F)(F)F)cc2-c2ccc(F)cc2)cc1 [SC-58125]  96.5 ± 13.6%
2. CN1[C@@H]2CC[C@H]1C[C@@H](OC(=O)c1cc(Cl)cc(Cl)c1)C2 [3-Tropanyl-3,5-dichlorobenzoate]  96.9 ± 4.1%

Same assay, conditions: compounds tested at 10 µM; % of control wells (1% DMSO and 25 nM CA200645); […]; mean ± SD, three experiments in duplicate

In order of falling “% 25 nM CA200645 binding” value:
1. COc1cc(C(O)CN)ccc1O.Cl (racemic) [(±)-Normetanephrine hydrochloride]  95.5 ± 24.8%
2. NC(=O)c1cccc(N)c1 [3-aminobenzamide]  91.6 ± 2.5%

Same assay, conditions: compounds tested at 10 µM; % of control wells (1% DMSO and 25 nM CA200645); whole live cells expressing the A3AR; mean ± SD, three experiments in duplicate

In order of rising “% 25 nM CA200645 binding” value:
1. Oc1cc2c(cc1O)CN(C(=S)NCCc1ccc(Cl)cc1)CCC2 [Capsazepine]  90.6 ± 11.8%
2. C[N+]1(C)[C@@H]2CC[C@H]1C[C@@H](OC(=O)C(CO)c1ccccc1)C2 (stereo partly shown) [Atropine methyl nitrate]  90.8 ± 8.8%
3. CSC(N)=NCCC[C@H](N)C(=O)O [S-Methyl-L-thiocitrulline acetate]  102.0 ± 13.0%
